pIC50: −log10 of the molar value.

The values that follow come from patent US9145375B2, “Quinazolinone compounds” (PRANA BIOTECHNOLOGY LIMITED, priority 2008, dated 2015).

Assay type in all cases: in vitro ADME
For one experiment, the target named is T1, CYP1A2 (Homo sapiens, UniProt P05177).
T1 construct: using a specific substrate approach in human liver microsomes; from tissue; host or cells: human liver microsomes
T1 sequence (P05177 1-516): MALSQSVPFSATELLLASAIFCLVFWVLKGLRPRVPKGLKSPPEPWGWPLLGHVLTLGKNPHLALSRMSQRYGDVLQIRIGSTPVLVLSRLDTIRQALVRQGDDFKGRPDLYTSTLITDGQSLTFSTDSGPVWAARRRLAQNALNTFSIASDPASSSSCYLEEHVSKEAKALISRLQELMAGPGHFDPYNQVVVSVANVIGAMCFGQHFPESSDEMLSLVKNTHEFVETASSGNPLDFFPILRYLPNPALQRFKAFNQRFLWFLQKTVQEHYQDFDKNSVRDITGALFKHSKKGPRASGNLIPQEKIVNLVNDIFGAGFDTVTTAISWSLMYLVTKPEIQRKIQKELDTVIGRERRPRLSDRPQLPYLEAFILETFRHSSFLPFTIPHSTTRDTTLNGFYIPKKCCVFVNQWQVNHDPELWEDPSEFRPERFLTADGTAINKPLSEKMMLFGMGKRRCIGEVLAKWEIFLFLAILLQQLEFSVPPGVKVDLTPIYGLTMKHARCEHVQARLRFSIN
In words: CYP450 isoform inhibition, recombinant enzymes, analysis by LCMS: CYP1A2. As for the experimental part:
(§1) CYP450 Isoform Inhibition
(§2) Microsomes containing individual recombinant human CYP450 enzymes (Supersomes™) were incubated in the presence of a fixed concentration of a probe substrate that forms a fluorescent metabolite upon CYP450-mediated metabolism.
(§3) A known inhibitor of each CYP450 isoform was included in each assay as a positive control and its IC50 was compared to literature values for acceptance of the assay.
(§4) The inherent fluorescence of the test compound was examined under the specific assay conditions for each isoform before and after the fluorometric assay to identify any compound-specific interference due to the parent compound or metabolic products. If the background fluorescence in these samples increased due to compound-specific interference, then the CYP450 inhibition samples were quantified using LC/MS assay.

For the next experiment, the target named is CYP3A4 (Homo sapiens, UniProt P08684). As to the kind of experiment: CYP450 isoform inhibition, recombinant enzymes, analysis by LCMS: CYP3A4. Details: purchased. As for the experimental part:
as §1, §2, §3, §4

The target of the next experiment is T2, CYP2C9 (Homo sapiens, UniProt P11712).
T2 construct: using a specific substrate approach in human liver microsomes; from tissue; host or cells: human liver microsomes
T2 sequence (P11712 whole entry): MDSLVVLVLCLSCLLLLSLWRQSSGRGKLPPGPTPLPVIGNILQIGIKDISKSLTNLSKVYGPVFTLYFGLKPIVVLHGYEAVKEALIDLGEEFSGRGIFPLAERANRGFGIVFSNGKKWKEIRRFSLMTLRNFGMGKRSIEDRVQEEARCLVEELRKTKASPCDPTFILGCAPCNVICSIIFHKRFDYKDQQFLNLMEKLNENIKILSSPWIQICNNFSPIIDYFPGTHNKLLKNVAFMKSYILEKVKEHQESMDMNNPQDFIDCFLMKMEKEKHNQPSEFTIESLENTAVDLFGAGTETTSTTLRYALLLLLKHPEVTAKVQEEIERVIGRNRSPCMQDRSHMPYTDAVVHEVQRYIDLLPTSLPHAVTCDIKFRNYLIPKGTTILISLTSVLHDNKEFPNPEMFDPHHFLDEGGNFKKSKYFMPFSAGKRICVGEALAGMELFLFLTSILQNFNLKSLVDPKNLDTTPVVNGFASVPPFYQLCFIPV
As to the kind of experiment: CYP450 isoform inhibition, recombinant enzymes, analysis by LCMS: CYP2C9. As for the experimental part: as §1, §2, §3, §4

In another experiment the target is CYP2E1 (Homo sapiens, UniProt P05181). In words: CYP450 inhibition, specific substrate approach in human liver microsomes: CYP2E1. Also on record: using a specific substrate approach in human liver microsomes; from tissue; host or cells: human liver microsomes. The protocol: CYP450 Isoform Inhibition Using a Specific Substrate Approach
Sequence of CYP2E1 (P05181 whole entry, canonical isoform): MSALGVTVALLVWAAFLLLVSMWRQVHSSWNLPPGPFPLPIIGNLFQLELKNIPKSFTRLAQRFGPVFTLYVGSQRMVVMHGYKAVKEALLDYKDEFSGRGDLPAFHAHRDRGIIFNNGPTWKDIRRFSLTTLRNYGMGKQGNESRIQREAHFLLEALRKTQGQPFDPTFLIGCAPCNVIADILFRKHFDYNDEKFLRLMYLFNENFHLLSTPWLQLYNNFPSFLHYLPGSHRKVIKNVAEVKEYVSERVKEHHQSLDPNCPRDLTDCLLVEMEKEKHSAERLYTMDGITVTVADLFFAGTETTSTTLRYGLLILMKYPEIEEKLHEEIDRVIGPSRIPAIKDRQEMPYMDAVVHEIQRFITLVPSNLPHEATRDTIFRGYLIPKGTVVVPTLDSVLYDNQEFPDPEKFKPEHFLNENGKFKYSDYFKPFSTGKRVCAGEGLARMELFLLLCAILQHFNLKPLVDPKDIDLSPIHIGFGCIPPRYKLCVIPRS
The present study is a “Tier 2” screen to assess potential enzyme inhibition at a test compound concentration of 20 μM using a specific substrate approach in human liver microsomes.
The substrate specific enzyme inhibition study relies on the formation of a metabolite that is mediated by a specific CYP450 isoform using human liver microsomes. In the current study, the following reactions were monitored to assess interactions with specific CYP450 isoforms. A known inhibitor of each isoform was included in each assay as a positive control. The following IC50 values have been reported in the literature using equivalent assay conditions for each CYP450 isoform:
The reaction was initiated by the addition of an NADPH-regenerating system and was quenched by the addition of acetonitrile prior to determining the concentration (and apparent rate of formation) of the specific metabolite by LC/MS.
The IC50 was deemed to be the concentration at which there was a 50% reduction in the amount of metabolite formed, relative to the maximal extent of formation.

Sequence of CYP3A4 (P08684 whole entry, canonical isoform): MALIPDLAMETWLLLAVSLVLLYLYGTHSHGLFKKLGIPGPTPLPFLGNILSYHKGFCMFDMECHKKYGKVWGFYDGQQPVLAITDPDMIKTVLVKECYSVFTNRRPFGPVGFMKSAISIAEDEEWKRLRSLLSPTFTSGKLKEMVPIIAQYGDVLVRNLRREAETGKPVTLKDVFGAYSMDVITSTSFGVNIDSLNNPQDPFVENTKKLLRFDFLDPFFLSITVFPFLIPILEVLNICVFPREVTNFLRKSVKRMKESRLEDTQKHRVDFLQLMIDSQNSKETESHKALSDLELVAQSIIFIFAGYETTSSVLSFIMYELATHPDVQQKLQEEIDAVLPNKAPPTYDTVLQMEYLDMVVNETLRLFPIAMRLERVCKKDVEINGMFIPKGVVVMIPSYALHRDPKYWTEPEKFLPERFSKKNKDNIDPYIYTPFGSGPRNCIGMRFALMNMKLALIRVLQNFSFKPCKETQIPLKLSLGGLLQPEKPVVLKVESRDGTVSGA

Consider `CNCc1nc2c(O)c(Cl)cc(Cl)c2c(=O)n1C` [Compound F4161], for which the pIC50 on CYP1A2 is 4.59; at CYP3A4 it was 4.86; on CYP2C9, under 4.40.

Take `CCn1c(CN(C)C)nc2c(O)c(Cl)cc(Cl)c2c1=O.Cl` [Compound F4268]: the pIC50 on CYP2E1 was under 4.70.
